Like-named read-outs stand apart in the source and are kept apart here.
How the values were obtained:
Type in all cases: biochemical
[1] = biological target: JAK1 (Homo sapiens, UniProt P23458); assay: JAK 1 enzymatic inhibitory activity IC50 assay (Caliper conversion rate); details: Km ATP, 28° C., 1 hour
Procedure, shortened: (§1)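 Human JAK1 or JAK2 enzyme was preincubated with graded compound (2% DMSO) in HEPES pH 7.5/Brij-35/DTT buffer (JAK1 also with Triton), then peptide substrate, 10 mM MgCl2 and ATP at Km were added. Reactions ran 1 hour at 28° C; Caliper conversion rate gave inhibition, averaged over two tests, for IC50.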

[2] = biological target: JAK2 (Homo sapiens, UniProt O60674); assay: JAK 2 enzymatic inhibitory activity IC50 assay (Caliper conversion rate); details: Km ATP, 28° C., 1 hour
Procedure, shortened: as §1

[3] = biological target: T1, JAK3 (Homo sapiens, UniProt P52333); assay: JAK 3 enzymatic inhibitory activity IC50 assay (Caliper conversion rate)
T1 sequence (P52333 1-1124): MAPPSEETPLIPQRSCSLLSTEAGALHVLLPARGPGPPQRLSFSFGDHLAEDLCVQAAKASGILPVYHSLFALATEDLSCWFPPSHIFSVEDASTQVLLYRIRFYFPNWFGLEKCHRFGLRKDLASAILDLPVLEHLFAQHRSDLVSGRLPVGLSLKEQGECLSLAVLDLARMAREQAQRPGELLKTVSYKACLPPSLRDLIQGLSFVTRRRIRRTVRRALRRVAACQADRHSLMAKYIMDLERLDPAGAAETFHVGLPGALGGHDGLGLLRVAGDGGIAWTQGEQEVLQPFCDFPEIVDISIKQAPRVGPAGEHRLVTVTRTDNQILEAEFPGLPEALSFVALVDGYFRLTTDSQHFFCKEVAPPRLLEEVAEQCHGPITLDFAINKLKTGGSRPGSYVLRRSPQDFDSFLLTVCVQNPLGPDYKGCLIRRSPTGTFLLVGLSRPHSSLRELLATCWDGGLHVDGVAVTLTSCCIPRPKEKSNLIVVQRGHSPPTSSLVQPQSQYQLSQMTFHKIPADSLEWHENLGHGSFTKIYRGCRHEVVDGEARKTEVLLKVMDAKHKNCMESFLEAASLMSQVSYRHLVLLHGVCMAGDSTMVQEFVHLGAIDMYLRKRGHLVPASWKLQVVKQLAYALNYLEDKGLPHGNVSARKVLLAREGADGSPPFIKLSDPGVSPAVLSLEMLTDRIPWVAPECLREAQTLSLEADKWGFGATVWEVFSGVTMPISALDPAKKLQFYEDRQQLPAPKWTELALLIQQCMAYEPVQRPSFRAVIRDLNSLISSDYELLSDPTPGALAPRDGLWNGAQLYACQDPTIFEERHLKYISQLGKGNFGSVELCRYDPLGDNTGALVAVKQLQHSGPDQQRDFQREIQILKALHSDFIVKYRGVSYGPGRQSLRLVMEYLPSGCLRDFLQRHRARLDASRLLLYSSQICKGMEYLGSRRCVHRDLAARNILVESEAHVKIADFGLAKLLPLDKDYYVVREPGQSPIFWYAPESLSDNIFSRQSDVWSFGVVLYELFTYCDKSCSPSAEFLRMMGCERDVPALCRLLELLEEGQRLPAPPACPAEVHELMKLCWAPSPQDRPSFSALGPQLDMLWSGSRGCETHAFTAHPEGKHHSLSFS

[4] = Km ATP, 28° C., 1 hour, read-out: JAK 3 enzymatic inhibitory activity IC50

Sequence of JAK1 (P23458 whole entry, species assumed): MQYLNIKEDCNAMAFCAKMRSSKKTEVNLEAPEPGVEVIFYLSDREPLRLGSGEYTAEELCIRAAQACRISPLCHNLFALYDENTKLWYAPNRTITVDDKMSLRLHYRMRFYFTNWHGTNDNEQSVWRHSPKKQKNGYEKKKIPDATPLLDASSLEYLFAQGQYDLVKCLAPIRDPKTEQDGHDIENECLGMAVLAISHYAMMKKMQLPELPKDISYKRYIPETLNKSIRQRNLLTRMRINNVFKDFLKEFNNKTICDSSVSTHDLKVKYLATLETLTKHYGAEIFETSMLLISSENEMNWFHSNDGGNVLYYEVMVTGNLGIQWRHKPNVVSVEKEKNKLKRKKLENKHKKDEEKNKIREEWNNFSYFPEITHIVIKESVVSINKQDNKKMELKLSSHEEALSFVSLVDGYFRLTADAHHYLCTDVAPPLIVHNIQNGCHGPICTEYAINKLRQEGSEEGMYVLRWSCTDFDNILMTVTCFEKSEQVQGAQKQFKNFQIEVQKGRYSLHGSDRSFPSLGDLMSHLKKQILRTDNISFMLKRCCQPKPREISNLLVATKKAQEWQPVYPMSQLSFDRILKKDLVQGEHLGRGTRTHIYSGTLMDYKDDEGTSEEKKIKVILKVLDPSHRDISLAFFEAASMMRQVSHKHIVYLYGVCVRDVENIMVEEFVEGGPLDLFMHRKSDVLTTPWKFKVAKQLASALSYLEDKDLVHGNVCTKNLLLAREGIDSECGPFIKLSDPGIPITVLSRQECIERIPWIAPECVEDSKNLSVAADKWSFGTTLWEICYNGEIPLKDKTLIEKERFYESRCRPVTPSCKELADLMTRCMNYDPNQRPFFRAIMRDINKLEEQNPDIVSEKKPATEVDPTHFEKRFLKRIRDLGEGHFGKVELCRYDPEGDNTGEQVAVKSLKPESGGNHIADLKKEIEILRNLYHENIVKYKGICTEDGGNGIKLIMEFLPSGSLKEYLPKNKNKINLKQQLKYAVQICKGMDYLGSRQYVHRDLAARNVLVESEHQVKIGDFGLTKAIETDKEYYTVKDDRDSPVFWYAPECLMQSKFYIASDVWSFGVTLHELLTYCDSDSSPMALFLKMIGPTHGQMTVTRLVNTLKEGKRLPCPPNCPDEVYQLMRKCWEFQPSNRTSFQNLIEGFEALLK
Sequence of JAK2 (O60674 whole entry, species assumed): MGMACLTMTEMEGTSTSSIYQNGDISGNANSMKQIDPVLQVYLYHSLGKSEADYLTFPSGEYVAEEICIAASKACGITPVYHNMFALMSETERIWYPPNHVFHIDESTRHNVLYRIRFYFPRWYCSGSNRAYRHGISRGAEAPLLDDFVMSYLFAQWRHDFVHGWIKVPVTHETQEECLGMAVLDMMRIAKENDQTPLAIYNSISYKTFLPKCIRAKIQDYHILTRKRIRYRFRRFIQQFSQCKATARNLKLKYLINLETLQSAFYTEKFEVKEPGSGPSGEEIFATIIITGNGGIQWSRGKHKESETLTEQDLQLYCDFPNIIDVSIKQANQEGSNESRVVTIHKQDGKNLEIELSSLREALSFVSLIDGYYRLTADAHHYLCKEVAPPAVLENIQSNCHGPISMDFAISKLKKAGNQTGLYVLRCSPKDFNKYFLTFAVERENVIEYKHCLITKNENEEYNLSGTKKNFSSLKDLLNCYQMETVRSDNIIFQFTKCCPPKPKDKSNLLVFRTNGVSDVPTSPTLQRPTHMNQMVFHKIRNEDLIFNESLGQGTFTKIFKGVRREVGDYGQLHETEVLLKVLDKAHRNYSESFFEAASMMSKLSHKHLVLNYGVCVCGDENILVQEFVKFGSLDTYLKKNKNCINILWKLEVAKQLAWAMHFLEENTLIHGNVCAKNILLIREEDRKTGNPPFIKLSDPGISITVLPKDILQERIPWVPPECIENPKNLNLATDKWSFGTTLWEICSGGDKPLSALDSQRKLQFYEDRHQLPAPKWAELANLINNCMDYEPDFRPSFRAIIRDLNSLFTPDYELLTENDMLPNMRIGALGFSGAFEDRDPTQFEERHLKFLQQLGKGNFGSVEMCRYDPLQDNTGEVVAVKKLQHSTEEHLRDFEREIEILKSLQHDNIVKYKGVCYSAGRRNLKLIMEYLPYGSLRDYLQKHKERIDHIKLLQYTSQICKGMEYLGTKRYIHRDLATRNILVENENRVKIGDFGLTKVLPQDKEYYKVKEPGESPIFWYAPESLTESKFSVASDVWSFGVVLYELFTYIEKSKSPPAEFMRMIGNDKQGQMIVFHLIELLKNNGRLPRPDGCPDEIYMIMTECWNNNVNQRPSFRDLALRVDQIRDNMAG

IC50 [1]	IC50 [2]	IC50 [3]	IC50 [3, 4]	SMILES
> 1000 nM	> 1000 nM	> 1000 nM	–	CCS(=O)(=O)N1CC(CC#N)(n2cc(-c3cc(Nc4ccccc4)nc4ccnn34)cn2)C1 [Compound T-55, 2-(1-(Ethylsulfonyl)-3-(4-(5-(phenylamino)pyrazolo[1,5-a]pyrimidin-7-yl)-1H-pyrazol-1-yl)azetidin-3-yl)acetonitrile]
> 1000 nM	> 1000 nM	–	> 1000 nM	N#Cc1ccc(-c2nc(Nc3ccccc3)nc3ccsc23)cc1F [Compound T-56, 2-Fluoro-4-(2-(phenylamino)thieno[3,2-d]pyrimidin-4-yl)benzonitrile]
50 to 500 nM	< 50 nM	–	50 to 500 nM	CCS(=O)(=O)N1CC(CC#N)(n2cc(-c3nc(Nc4ccc5[nH]ncc5c4)nc4ccsc34)cn2)C1 [Compound T-57, 2-(3-(4-(2-((1H-Indazol-5-yl)amino)thieno[3,2-d]pyrimidin-4-yl)-1H-pyrazol-1-yl)-1-(ethylsulfonyl)azetidin-3-yl)acetonitrile]
< 50 nM	< 50 nM	–	50 to 500 nM	CCS(=O)(=O)N1CC(CC#N)(n2cc(-c3nc(Nc4ccc5[nH]cnc5c4)nc4ccsc34)cn2)C1 [Compound T-58, 2-(3-(4-(2-((1H-Benzo[d]imidazol-5-yl)amino)thieno[3,2-d]pyrimidin-4-yl)-1H-pyrazol-1-yl)-1-(ethylsulfonyl)azetidin-3-yl)acetonitrile]
< 50 nM	< 50 nM	–	50 to 500 nM	CCS(=O)(=O)N1CC(CC#N)(n2cc(-c3nc(Nc4ccc(-n5cnnn5)cc4)nc4ccsc34)cn2)C1 [Compound T-59, 2-(3-(4-(2-((4-(1H-Tetrazol-1-yl)phenyl)amino)thieno[3,2-d]pyrimidin-4-yl)-1H-pyrazol-1-yl)-1-(ethylsulfonyl)azetidin-3-yl)acetonitrile]
< 50 nM	< 50 nM	–	< 50 nM	CCS(=O)(=O)N1CC(CC#N)(n2cc(-c3nc(Nc4cnn(CCCN5CCOCC5)c4)nc4ccsc34)cn2)C1 [Compound T-60, 2-(1-(Ethylsulfonyl)-3-(4-(2-((1-(3-morpholinopropyl)-1H-pyrazol-4-yl)amino)thieno[3,2-d]pyrimidin-4-yl)-1H-pyrazol-1-yl)azetidin-3-yl)acetonitrile]
< 50 nM	< 50 nM	–	< 50 nM	CCS(=O)(=O)N1CC(CC#N)(n2cc(-c3nc(Nc4cnn(CCCc5nn[nH]n5)c4)nc4ccsc34)cn2)C1 [Compound T-61, 2-(3-(4-(2-((1-(3-(2H-Tetrazol-5-yl)propyl)-1H-pyrazol-4-yl)amino)thieno[3,2-d]pyrimidin-4-yl)-1H-pyrazol-1-yl)-1-(ethylsulfonyl)azetidin-3-yl)acetonitrile]
50 to 500 nM	< 50 nM	–	50 to 500 nM	CCS(=O)(=O)N1CC(CC#N)(n2cc(-c3nc(Nc4ccc(N5CCOCC5)nc4)nc4ccsc34)cn2)C1 [Compound T-62, 2-(1-(Ethylsulfonyl)-3-(4-(2-((6-morpholinopyridin-3-yl)amino)thieno[3,2-d]pyrimidin-4-yl)-1H-pyrazol-1-yl)azetidin-3-yl)acetonitrile]
500 to 1000 nM	< 50 nM	–	500 to 1000 nM	CCS(=O)(=O)N1CC(CC#N)(n2cc(-c3nc(Nc4cnc(N5CCOCC5)nc4)nc4ccsc34)cn2)C1 [Compound T-63, 2-(1-(Ethylsulfonyl)-3-(4-(2-((2-morpholinopyrimidin-5-yl)amino)thieno[3,2-d]pyrimidin-4-yl)-1H-pyrazol-1-yl)azetidin-3-yl)acetonitrile]
< 50 nM	< 50 nM	–	< 50 nM	CCS(=O)(=O)N1CC(CC#N)(n2cc(-c3nc(Nc4cnn(C5CCN(C)CC5)c4)nc4ccsc34)cn2)C1 [Compound T-64, 2-(1-(Ethylsulfonyl)-3-(4-(2-((1-(1-methylpiperidin-4-yl)-1H-pyrazol-4-yl)amino)thieno[3,2-d]pyrimidin-4-yl)-1H-pyrazol-1-yl)azetidin-3-yl)acetonitrile]
< 50 nM	< 50 nM	–	50 to 500 nM	CCS(=O)(=O)N1CC(CC#N)(n2cc(-c3nc(Nc4cnn(C5CNC5)c4)nc4ccsc34)cn2)C1 [Compound T-65, 2-(3-(4-(2-((1-(Azetidin-3-yl)-1H-pyrazol-4-yl)amino)thieno[3,2-d]pyrimidin-4-yl)-1H-pyrazol-1-yl)-1-(ethylsulfonyl)azetidin-3-yl)acetonitrile]
< 50 nM	< 50 nM	–	< 50 nM	CCS(=O)(=O)N1CC(CC#N)(n2cc(-c3nc(Nc4cnn(C5CN(CC6CC6)C5)c4)nc4ccsc34)cn2)C1 [Compound T-66, 2-(3-(4-(2-((1-(1-(Cyclopropylmethyl)azetidin-3-yl)-1H-pyrazol-4-yl)amino)thieno[3,2-d]pyrimidin-4-yl)-1H-pyrazol-1-yl)-1-(ethylsulfonyl)azetidin-3-yl)acetonitrile]
50 to 500 nM	< 50 nM	–	< 50 nM	CCS(=O)(=O)N1CC(CC#N)(n2cc(-c3nc(Nc4cnn(CCCN5CCN(C)CC5)c4)nc4ccsc34)cn2)C1 [Compound T-67, 2-(1-(Ethylsulfonyl)-3-(4-(2-((1-(3-(4-methylpiperazin-1-yl)propyl)-1H-pyrazol-4-yl)amino)thieno[3,2-d]pyrimidin-4-yl)-1H-pyrazol-1-yl)azetidin-3-yl)acetonitrile]
> 1000 nM	50 to 500 nM	–	> 1000 nM	CCS(=O)(=O)N1CC(CC#N)(n2cc(-c3nc(Nc4cnn(C)c4)nc4cc(Cl)sc34)cn2)C1 [Compound T-68, 2-(3-(4-(6-Chloro-2-((1-methyl-1H-pyrazol-4-yl)amino)thieno[3,2-d]pyrimidin-4-yl)-1H-pyrazol-1-yl)-1-(ethylsulfonyl)azetidin-3-yl)acetonitrile]
< 50 nM	< 50 nM	–	50 to 500 nM	CCS(=O)(=O)N1CC(CC#N)(n2cc(-c3nc(Nc4cnn(CC(F)(F)F)c4)nc4ccsc34)cn2)C1 [Compound T-69, 2-(1-(Ethylsulfonyl)-3-(4-(2-((1-(2,2,2-trifluoroethyl)-1H-pyrazol-4-yl)amino)thieno[3,2-d]pyrimidin-4-yl)-1H-pyrazol-1-yl)azetidin-3-yl)acetonitrile]
< 50 nM	< 50 nM	–	< 50 nM	CCS(=O)(=O)N1CC(CC#N)(n2cc(-c3nc(Nc4cnn(CCOC)c4)nc4ccsc34)cn2)C1 [Compound T-70, 2-(1-(Ethylsulfonyl)-3-(4-(2-((1-(2-methoxyethyl)-1H-pyrazol-4-yl)amino)thieno[3,2-d]pyrimidin-4-yl)-1H-pyrazol-1-yl)azetidin-3-yl)acetonitrile]
< 50 nM	< 50 nM	–	< 50 nM	CCS(=O)(=O)N1CC(CC#N)(n2cc(-c3nc(Nc4cnn(CCC#N)c4)nc4ccsc34)cn2)C1 [Compound T-71, 3-(4-((4-(1-(3-(Cyanomethyl)-1-(ethylsulfonyl)azetidin-3-yl)-1H-pyrazol-4-yl)thieno[3,2-d]pyrimidin-2-yl)amino)-1H-pyrazol-1-yl)propanenitrile]
< 50 nM	< 50 nM	–	< 50 nM	CCS(=O)(=O)N1CC(CC#N)(n2cc(-c3nc(Nc4cc(C)[nH]n4)nc4ccsc34)cn2)C1 [Compound T-72, 2-(1-(Ethylsulfonyl)-3-(4-(2-((5-methyl-1H-pyrazol-3-yl)amino)thieno[3,2-d]pyrimidin-4-yl)-1H-pyrazol-1-yl)azetidin-3-yl)acetonitrile]
50 to 500 nM	< 50 nM	–	50 to 500 nM	CS(=O)(=O)CCCn1cc(Nc2nc(-c3cnn(C4(CC#N)CCC4)c3)c3sccc3n2)cn1 [Compound T-73, 2-(1-(4-(2-((1-(3-(Methylsulfonyl)propyl)-1H-pyrazol-4-yl)amino)thieno[3,2-d]pyrimidin-4-yl)-1H-pyrazol-1-yl)cyclobutyl)acetonitrile]
< 50 nM	< 50 nM	–	< 50 nM	Cn1cc(Nc2nc(-c3cnn(C4(CC#N)CN(S(C)(=O)=O)C4)c3)c3sccc3n2)cn1 [Compound T-74, 2-(3-(4-(2-((1-Methyl-1H-pyrazol-4-yl)amino)thieno[3,2-d]pyrimidin-4-yl)-1H-pyrazol-1-yl)-1-(methylsulfonyl)azetidin-3-yl)acetonitrile]

Source: US9745320B2, “Five-and-six-membered heterocyclic compound, and preparation method, pharmaceutical composition and use thereof” (SHANGHAI CHEMEXPLORER CO., LTD., priority 2013, dated 2017)
